Data set [1] deals with tobacco cutworm (Spodoptera litura). As to the kind of experiment: Mortality of third-instar larvae of tobacco cutworm on cabbage (Test Example 1). It is filed as in vivo. The procedure: Ten third-instar larvae of tobacco cutworm (Spodoptera litura) were placed on a cabbage (one-month-old seedling) planted in a pot, and a 50% emulsion of the compound to be tested was diluted to a specified concentration and applied to the leaves of the plant to fully wet them. The test compound of each specified concentration was tested on two pots.

In data set [2] the test system is green rice leafhopper (Nephotettix cincticeps). As to the kind of experiment: Mortality of female adults of green rice leafhopper on paddy rice (Test Example 2). It is filed as in vivo. To be noted: 72 h. The method, then: An emulsion of specified concentration was prepared from a 50% wettable powder of the compound to be tested and applied to the leaves of paddy rice (one-month-old seedlings) planted in a pot to fully wet the leaves. After the emulsion had been dried, the pot was covered with a net cage, into which 10 female adults of green rice leafhopper (Nephotettix cincticeps) were released. The compound of each specified concentration was tested on two pots.

For data set [3], the system named is house fly (Musca domestica). As to the kind of experiment: Local application to house fly, LD50 by Probit method (Test Example 4). It is filed as in vivo. Particulars: topical, 24 h. The procedure: The compound to be tested was dissolved in a predetermined amount of acetone. The solution was diluted to various concentrations and locally applied to house fly (Musca domestica).

Data set [4] is described as follows: Acute oral toxicity in male mice, LD50 by Litchfield-Wilcoxon method (Test Example 5). To be noted: mouse, in vivo, mortality on the seventh day. The method, then:
Compounds of this invention were tested on male mice for acute toxicity by oral administration.

Like-named read-outs stand apart in the source and are kept apart here.

`CCOC(=O)N(CCC#N)SN(C)C(=O)Oc1cccc2c1OC(C)(C)C2` [Example 51]: in data set [1] (72 h), the mortality – broadly, the percentage killed – at 500 ppm worked out at 70%; the mortality at 1000 ppm came out at 85%; the mortality at 2000 ppm is 100%. In data set [2], this compound gave a mortality at 200 ppm of 65%, a mortality at 400 ppm of 85% and a mortality at 800 ppm of 100%. Also, the LD50 – broadly, the dose at which mortality reaches 50% – in data set [3] amounted to 45.3 mg/kg. For the same compound, the 50% lethal dose (LD50) at 168 h in data set [4] is 88 mg/kg.

In data set [1] (72 h), `CCOC(=O)CN(SN(C)C(=O)Oc1cccc2c1OC(C)(C)C2)C(=O)OCC` [Example 44, 2,3-dihydro-2,2-dimethylbenzofuran-7-yl N-(N-ethoxycarbonyl-N-ethoxycarbonylmethylaminosulfenyl)-N-methyl-carbamat] had a mortality at 500 ppm of 75%, a mortality at 1000 ppm of 90% and a mortality at 2000 ppm of 100%. In data set [2], this compound returned a mortality at 200 ppm of 70%, a mortality at 400 ppm of 90% and a mortality at 800 ppm of 100%. In data set [3], this compound displayed a median lethal dose (LD50) of 16.2 mg/kg. For the same compound, the 50% lethal dose (LD50) at 168 h in data set [4] was 128 mg/kg.

In data set [1] (72 h), `CCOC(=O)CN(SN(C)C(=O)Oc1cccc2c1OC(C)(C)C2)C(=O)CCl` [Example 45] registered a mortality at 500 ppm of 75%, a mortality at 1000 ppm of 90% and a mortality at 2000 ppm of 100%. Moreover, in data set [2], the mortality at 200 ppm came to 65%, the mortality at 400 ppm came to 90% and the mortality at 800 ppm stood at 100%. The 50% lethal dose (LD50) in data set [3] was determined as 29.2 mg/kg. Further, the LD50 at 168 h in data set [4] worked out at 80 mg/kg.

`CCOC(=O)CCN(SN(C)C(=O)Oc1cccc2c1OC(C)(C)C2)C(C)C` [Example 23, 2,3-Dihydro-2,2-dimethylbenzofuran-7-yl N-(N-isopropyl-N-ethoxycarbonylethylaminosulfenyl)-N-methylcarbamate]: the mortality at 500 ppm in data set [1] (72 h, 500 ppm active ingredient, 50% emulsion diluted, three days later, read-out: Mortality) was determined as 70%. Besides, the mortality at 1000 ppm in data set [1] (72 h, 1,000 ppm active ingredient, 50% emulsion diluted, three days later, read-out: Mortality) amounted to 85%. The mortality at 2000 ppm in data set [1] (72 h, 2,000 ppm active ingredient, 50% emulsion diluted, three days later, read-out: Mortality) was found to be 100%. Besides, the mortality at 200 ppm in data set [2] (200 ppm active ingredient, from 50% wettable powder, three days later, read-out: Mortality) was determined as 55%. The mortality at 400 ppm in data set [2] (400 ppm active ingredient, from 50% wettable powder, three days later, read-out: Mortality) was 85%. Further, the mortality at 800 ppm in data set [2] (800 ppm active ingredient, from 50% wettable powder, three days later, read-out: Mortality) came out at 100%. The same compound yielded an LD50 in data set [3] of 44.3 mg/kg. The same compound displayed an LD50 at 168 h in data set [4] of 113 mg/kg.

On to `COC(=O)CN(CC(=O)OC)SN(C)C(=O)Oc1cccc2c1OC(C)(C)C2` [Example 3], for which, in data set [1] (72 h), the mortality at 500 ppm turned out to be 65%, the mortality at 1000 ppm stood at 80% and the mortality at 2000 ppm came out at 100%. In data set [2], this compound displayed a mortality at 200 ppm of 45%, a mortality at 400 ppm of 85% and a mortality at 800 ppm of 100%. The median lethal dose (LD50) in data set [3] was found to be 40 mg/kg. This compound yielded an LD50 at 168 h in data set [4] of 145 mg/kg.

As for `CCCCN(CCC#N)SN(C)C(=O)Oc1cccc2c1OC(C)(C)C2` [Example 39, 2,3-Dihydro-2,2-dimethylbenzofuran-7-yl N-(N-n-butyl-N-cyanoethylaminosulfenyl)-N-methyl-carbamate], in data set [1] (72 h), the mortality at 500 ppm was 75%, the mortality at 1000 ppm is 90% and the mortality at 2000 ppm turned out to be 100%. In data set [2], this compound registered a mortality at 200 ppm of 70%, a mortality at 400 ppm of 90% and a mortality at 800 ppm of 100%. For the same compound, the LD50 in data set [3] worked out at 13.7 mg/kg. In data set [4], this compound displayed an LD50 at 168 h of 110 mg/kg.

Turning to `CCCCN(CC#N)SN(C)C(=O)Oc1cccc2c1OC(C)(C)C2` [Example 33, 2,3-dihydro-2,2-dimethylbenzofuran-7-yl N-(N-butyl-N-cyanomethylaminosulfenyl)-N-methyl-carbamate], in data set [1] (72 h), the mortality at 500 ppm worked out at 75%, the mortality at 1000 ppm came out at 90% and the mortality at 2000 ppm came out at 100%. In data set [2], this compound yielded a mortality at 200 ppm of 70%, a mortality at 400 ppm of 90% and a mortality at 800 ppm of 100%. The same compound had a 50% lethal dose (LD50) in data set [3] of 9.1 mg/kg. This compound also showed an LD50 at 168 h in data set [4] of 103 mg/kg.

Consider `COC(=O)CCN(SN(C)C(=O)Oc1cccc2c1OC(C)(C)C2)C(C)C` [Example 24], for which, in data set [1] (72 h), the mortality at 500 ppm was found to be 75%, the mortality at 1000 ppm amounted to 85% and the mortality at 2000 ppm is 100%. In data set [2], the mortality at 200 ppm came out at 60%, the mortality at 400 ppm was 90% and the mortality at 800 ppm was determined as 100%. In data set [3], the LD50 stood at 38.6 mg/kg. Further, the 50% lethal dose (LD50) at 168 h in data set [4] stood at 77 mg/kg.

In data set [1] (72 h), `CCOC(=O)CN(SN(C)C(=O)Oc1cccc2c1OC(C)(C)C2)C(CC)C(=O)OCC` (stereo not drawn) [Example 11] had a mortality at 500 ppm of 70%, a mortality at 1000 ppm of 80% and a mortality at 2000 ppm of 100%. For the same compound, in data set [2], the mortality at 200 ppm came out at 55%, the mortality at 400 ppm is 80% and the mortality at 800 ppm was determined as 95%. In addition, the 50% lethal dose (LD50) in data set [3] amounted to 93.9 mg/kg. The 50% lethal dose (LD50) at 168 h in data set [4] worked out at 93 mg/kg.

For `CCOC(=O)CCN(CC(=O)OCC)SN(C)C(=O)Oc1cccc2c1OC(C)(C)C2` [Example 9], in data set [1] (72 h), the mortality at 500 ppm came to 80%, the mortality at 1000 ppm was found to be 90% and the mortality at 2000 ppm was found to be 100%. In data set [2], this compound had a mortality at 200 ppm of 60%, a mortality at 400 ppm of 90% and a mortality at 800 ppm of 100%. The LD50 in data set [3] was 31.7 mg/kg. The same compound registered a 50% lethal dose (LD50) at 168 h in data set [4] of 158 mg/kg.

In data set [1] (72 h), `CCOC(=O)CN(SN(C)C(=O)Oc1cccc2c1OC(C)(C)C2)C1CCCCC1` [Example 18] gave a mortality at 500 ppm of 75%, a mortality at 1000 ppm of 90% and a mortality at 2000 ppm of 100%. Also, in data set [2], the mortality at 200 ppm was 65%, the mortality at 400 ppm is 90% and the mortality at 800 ppm worked out at 100%. In data set [3], this compound returned an LD50 of 32.5 mg/kg. The same compound yielded an LD50 at 168 h in data set [4] of 135 mg/kg.

With `CCOC(=O)CCN(SN(C)C(=O)Oc1cccc2c1OC(C)(C)C2)C(C)CC` (stereo not drawn) [Example 29], in data set [1] (72 h), the mortality at 500 ppm is 60%, the mortality at 1000 ppm worked out at 80% and the mortality at 2000 ppm is 100%. In data set [2], the mortality at 200 ppm came out at 45%, the mortality at 400 ppm worked out at 75% and the mortality at 800 ppm came out at 100%. The 50% lethal dose (LD50) in data set [3] was 22.5 mg/kg. This compound also had an LD50 at 168 h in data set [4] of 120 mg/kg.

Take `CCOC(=O)CN(SN(C)C(=O)Oc1cccc2c1OC(C)(C)C2)C(=O)Oc1ccccc1` [Example 50]: in data set [1] (72 h), the mortality at 500 ppm was found to be 65%, the mortality at 1000 ppm worked out at 80% and the mortality at 2000 ppm was determined as 100%. In data set [2], this compound displayed a mortality at 200 ppm of 60%, a mortality at 400 ppm of 75% and a mortality at 800 ppm of 95%. For the same compound, the LD50 in data set [3] was found to be 34.7 mg/kg. This compound came in with an LD50 at 168 h in data set [4] of 95 mg/kg.

In data set [1] (72 h), `CC(C)CN(CCC#N)SN(C)C(=O)Oc1cccc2c1OC(C)(C)C2` [Example 40] registered a mortality at 500 ppm of 75%, a mortality at 1000 ppm of 85% and a mortality at 2000 ppm of 100%. Also, in data set [2], the mortality at 200 ppm turned out to be 70%, the mortality at 400 ppm worked out at 85% and the mortality at 800 ppm was 100%. Further, the LD50 in data set [3] was found to be 37.9 mg/kg. In data set [4], this compound came in with a 50% lethal dose (LD50) at 168 h of 103 mg/kg.

For `CN(SN(CC#N)CC#N)C(=O)Oc1cccc2c1OC(C)(C)C2` [Example 1, 2,3-dihydro-2,2-dimethylbenzofuran-7-yl N-[N,N-bis(cyanomethyl)aminosulfenyl]-N-methyl-carbamate], in data set [1] (72 h), the mortality at 500 ppm was 65%, the mortality at 1000 ppm stood at 80% and the mortality at 2000 ppm was 100%. In data set [2], this compound showed a mortality at 200 ppm of 50%, a mortality at 400 ppm of 85% and a mortality at 800 ppm of 100%. Also, in data set [3], the LD50 was 21.3 mg/kg. Moreover, the median lethal dose (LD50) at 168 h in data set [4] was 58 mg/kg.

For the compound `CN(SN(CCC#N)C1CCCCC1)C(=O)Oc1cccc2c1OC(C)(C)C2` [Example 42], in data set [1] (72 h), the mortality at 500 ppm is 70%, the mortality at 1000 ppm is 85% and the mortality at 2000 ppm came to 100%. In addition, in data set [2], the mortality at 200 ppm turned out to be 65%, the mortality at 400 ppm came out at 85% and the mortality at 800 ppm amounted to 100%. Besides, the LD50 in data set [3] is 46 mg/kg. This compound also returned an LD50 at 168 h in data set [4] of 88 mg/kg.

Turning to `CCOC(=O)CN(CCC#N)SN(C)C(=O)Oc1cccc2c1OC(C)(C)C2` [Example 8], in data set [1] (72 h), the mortality at 500 ppm came to 75%, the mortality at 1000 ppm stood at 85% and the mortality at 2000 ppm was 100%. For the same compound, in data set [2], the mortality at 200 ppm was found to be 60%, the mortality at 400 ppm was found to be 85% and the mortality at 800 ppm is 95%. In data set [3], this compound showed an LD50 of 24.6 mg/kg. Besides, in data set [4], the LD50 at 168 h was found to be 105 mg/kg.

In the case of `CN(SN(CC#N)c1ccccc1)C(=O)Oc1cccc2c1OC(C)(C)C2` [Example 35], in data set [1] (72 h), the mortality at 500 ppm is 65%, the mortality at 1000 ppm was 80% and the mortality at 2000 ppm was determined as 100%. In data set [2], this compound came in with a mortality at 200 ppm of 60%, a mortality at 400 ppm of 75% and a mortality at 800 ppm of 95%. The compound also yielded an LD50 in data set [3] of 65.6 mg/kg. In data set [4], this compound showed an LD50 at 168 h of 95 mg/kg.
